Measured values: patent US10668043B2, “Potentiated antimicrobial agents” (priority 2014, dated 2020)

Tested on: E. coli
Test: Double dilution test
Format: cell-based
From the text: The double dilution test is a MIC measurement test made on successive dilutions of the 2 products of the composition. […] The summary table expresses for each strain and for each dilution of the booster the measured antibiotic MIC.
The code enabling the results to be interpreted is the following one: no sign “^+” if the MIC is equivalent with and without booster, a sign “^+” if the value is lower with booster.

For `CC1(C)S[C@@H]2[C@H](NC(=O)[C@H](N)c3ccc(O)cc3)C(=O)N2[C@H]1C(=O)O` [Amox, amoxicillin], the amoxicillin MIC (strain 8137, Amox, cineol 0) was 8 µg/mL, the “amoxicillin MIC” value (strain 8137, cineol 10 mg/L) was 0.5^+ and the amoxicillin MIC (strain 8137, cineol 20 mg/L) was 8 µg/mL. It also gave an amoxicillin MIC (strain 8137, cineol 37.5 mg/L) of 8 µg/mL, an amoxicillin MIC (strain 8137, cineol 75 mg/L) of 8 µg/mL and an amoxicillin MIC (strain 8137, cineol 150 mg/L) of 8 µg/mL. The amoxicillin MIC (strain 8137, cineol 300 mg/L) was 8 µg/mL, the amoxicillin MIC (strain 8137, cineol 600 mg/L) was 8 µg/mL and the amoxicillin MIC (strain 8137, cineol 2,500 mg/L) was 8 µg/mL. The amoxicillin MIC (strain 8137, cineol 5,000 mg/L) was 8 µg/mL, the “amoxicillin MIC” value (strain 8137, cineol 25,000 mg/L) was 4^+ and the “amoxicillin MIC” value (strain 8137, cineol 50,000 mg/L) was 0.25^+. The amoxicillin MIC (strain 8137, cineol […]) was 8 µg/mL, the amoxicillin MIC (strain 8151, Amox, cineol 0) was 8 µg/mL and the “amoxicillin MIC” value (strain 8151, cineol 10 mg/L) was 0.5^+. For the same compound, the amoxicillin MIC (strain 8151, cineol 20 mg/L) was 8 µg/mL, the amoxicillin MIC (strain 8151, cineol 37.5 mg/L) was 8 µg/mL and the amoxicillin MIC (strain 8151, cineol 75 mg/L) was 8 µg/mL. It also gave an amoxicillin MIC (strain 8151, cineol 150 mg/L) of 8 µg/mL, an amoxicillin MIC (strain 8151, cineol 300 mg/L) of 8 µg/mL and an amoxicillin MIC (strain 8151, cineol 600 mg/L) of 8 µg/mL. For the same compound, the amoxicillin MIC (strain 8151, cineol 2,500 mg/L) was 8 µg/mL, the amoxicillin MIC (strain 8151, cineol 5,000 mg/L) was 8 µg/mL and the “amoxicillin MIC” value (strain 8151, cineol 10,000 mg/L) was 4^+. The “amoxicillin MIC” value (strain 8151, cineol 25,000 mg/L) was 4^+, the “amoxicillin MIC” value (strain 8151, cineol 50,000 mg/L) was 0.25^+ and the amoxicillin MIC (strain 8151, cineol […]) was 8 µg/mL. For the same compound, the amoxicillin MIC (strain 8155, Amox, cineol 0) was 8 µg/mL, the “amoxicillin MIC” value (strain 8155, cineol 10 mg/L) was 0.5^+ and the amoxicillin MIC (strain 8155, cineol 20 mg/L) was 8 µg/mL. For the same compound, the amoxicillin MIC (strain 8155, cineol 37.5 mg/L) was 8 µg/mL, the amoxicillin MIC (strain 8155, cineol 75 mg/L) was 8 µg/mL and the amoxicillin MIC (strain 8155, cineol 150 mg/L) was 8 µg/mL. It also gave an amoxicillin MIC (strain 8155, cineol 300 mg/L) of 8 µg/mL, an amoxicillin MIC (strain 8155, cineol 600 mg/L) of 8 µg/mL and an amoxicillin MIC (strain 8155, cineol 2,500 mg/L) of 8 µg/mL. For the same compound, the amoxicillin MIC (strain 8155, cineol 5,000 mg/L) was 8 µg/mL, the amoxicillin MIC (strain 8155, cineol 10,000 mg/L) was 8 µg/mL and the “amoxicillin MIC” value (strain 8155, cineol 25,000 mg/L) was 4^. The “amoxicillin MIC” value (strain 8155, cineol 50,000 mg/L) was 0.25^+, the amoxicillin MIC (strain 8155, cineol […]) was 8 µg/mL and the amoxicillin MIC (strain 8156, Amox, cineol 0) was 8 µg/mL. For the same compound, the “amoxicillin MIC” value (strain 8156, cineol 10 mg/L) was 0.5^+, the amoxicillin MIC (strain 8156, cineol 20 mg/L) was 8 µg/mL and the amoxicillin MIC (strain 8156, cineol 37.5 mg/L) was 8 µg/mL. It also gave an amoxicillin MIC (strain 8156, cineol 75 mg/L) of 8 µg/mL, an amoxicillin MIC (strain 8156, cineol 150 mg/L) of 8 µg/mL and an amoxicillin MIC (strain 8156, cineol 300 mg/L) of 8 µg/mL. The amoxicillin MIC (strain 8156, cineol 600 mg/L) was 8 µg/mL, the amoxicillin MIC (strain 8156, cineol 2,500 mg/L) was 16 µg/mL and the amoxicillin MIC (strain 8156, cineol 5,000 mg/L) was 8 µg/mL. For the same compound, the amoxicillin MIC (strain 8156, cineol 10,000 mg/L) was 8 µg/mL, the “amoxicillin MIC” value (strain 8156, cineol 25,000 mg/L) was 8^ and the “amoxicillin MIC” value (strain 8156, cineol 50,000 mg/L) was 4^+. For the same compound, the amoxicillin MIC (strain 8156, cineol […]) was 8 µg/mL, the amoxicillin MIC (strain ATCC 25922, Amox, cineol 0) was 8 µg/mL and the “amoxicillin MIC” value (strain ATCC 25922, cineol 10 mg/L) was 0.5^+. It also gave an amoxicillin MIC (strain ATCC 25922, cineol 20 mg/L) of 8 µg/mL, an amoxicillin MIC (strain ATCC 25922, cineol 37.5 mg/L) of 8 µg/mL and an amoxicillin MIC (strain ATCC 25922, cineol 75 mg/L) of 8 µg/mL. The amoxicillin MIC (strain ATCC 25922, cineol 150 mg/L) was 8 µg/mL, the amoxicillin MIC (strain ATCC 25922, cineol 300 mg/L) was 8 µg/mL and the amoxicillin MIC (strain ATCC 25922, cineol 600 mg/L) was 8 µg/mL. The amoxicillin MIC (strain ATCC 25922, cineol 2,500 mg/L) was 16 µg/mL, the amoxicillin MIC (strain ATCC 25922, cineol 5,000 mg/L) was 8 µg/mL and the “amoxicillin MIC” value (strain ATCC 25922, cineol 25,000 mg/L) was 4^+. The “amoxicillin MIC” value (strain ATCC 25922, cineol 50,000 mg/L) was 0.06^+ and the amoxicillin MIC (strain ATCC 25922, cineol […]) was 8 µg/mL.
